Legend:
Assay in all cases: relative viability (nuclei count vs DMSO), 5 days (fraction); higher = more cells survive
NCI-H2085 = test system: NCI-H2085
Method in brief: (§1)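 Five library-drug doses in √10 steps were combined with a fixed anchor-drug dose, or a single drug was given alone, by pin tool to lung cancer cell lines in 1536-well plates the day after seeding. Nuclei were stained and counted after 5 days. Relative viability is the nuclei count in treated wells over that in vehicle wells, taken as the median of duplicate plates.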

NCI-H2087 = test system: NCI-H2087
Method in brief: as §1

NCI-H23 = test system: NCI-H23
Method in brief: as §1

NCI-H3122 = test system: NCI-H3122
Method in brief: as §1

NCI-H322M = test system: NCI-H322M
Method in brief: as §1

NCI-H358 = test system: NCI-H358
Method in brief: as §1

NCI-H460 = test system: NCI-H460
Method in brief: as §1

NCI-H522 = test system: NCI-H522
Method in brief: as §1

NCI-H596 = test system: NCI-H596
Method in brief: as §1

NCI-H650 = test system: NCI-H650
Method in brief: as §1

PC-3 [JPC-3] = test system: PC-3 [JPC-3]
Method in brief: as §1

SK-LU-1 = test system: SK-LU-1
Method in brief: as §1

## CN1CCN(CCOc2cc(OC3CCOCC3)c3c(Nc4c(Cl)ccc5c4OCO5)ncnc3c2)CC1 [Saracatinib] + Nc1nc2[nH]cc(CCc3ccc(C(=O)N[C@@H](CCC(=O)O)C(=O)O)cc3)c2c(=O)[nH]1 [Pemetrexed] (partner 0.2 µM)
NCI-H2085; first compound 0.6325 µM
  relative viability: 0.85
NCI-H2085; first compound 2 µM
  relative viability: 0.63
NCI-H2087; first compound 0.02 µM
  relative viability: 0.63
NCI-H2087; first compound 0.2 µM
  relative viability: 0.722
NCI-H2087; first compound 0.6325 µM
  relative viability: 0.574
NCI-H2087; first compound 2 µM
  relative viability: 0.707
NCI-H23; first compound 0.02 µM
  relative viability: 0.683
NCI-H23; first compound 0.6325 µM
  relative viability: 0.613
NCI-H23; first compound 2 µM
  relative viability: 0.519
NCI-H3122; first compound 0.02 µM
  relative viability: 0.195
NCI-H3122; first compound 0.2 µM
  relative viability: 0.169
NCI-H3122; first compound 0.6325 µM
  relative viability: 0.197
NCI-H3122; first compound 2 µM
  relative viability: 0.169
NCI-H322M; first compound 0.02 µM
  relative viability: 0.574
NCI-H322M; first compound 0.2 µM
  relative viability: 0.55
NCI-H322M; first compound 0.6325 µM
  relative viability: 0.505
NCI-H322M; first compound 2 µM
  relative viability: 0.32
NCI-H358; first compound 0.02 µM
  relative viability: 0.193
NCI-H358; first compound 0.2 µM
  relative viability: 0.166
NCI-H358; first compound 0.6325 µM
  relative viability: 0.156
NCI-H358; first compound 2 µM
  relative viability: 0.151
NCI-H460; first compound 0.02 µM
  relative viability: 0.0672
NCI-H460; first compound 0.2 µM
  relative viability: 0.0368
NCI-H460; first compound 0.6325 µM
  relative viability: 0.0538
NCI-H460; first compound 2 µM
  relative viability: 0.0548
NCI-H522; first compound 0.02 µM
  relative viability: 1.15
NCI-H522; first compound 0.2 µM
  relative viability: 0.918
NCI-H522; first compound 0.6325 µM
  relative viability: 0.735
NCI-H522; first compound 2 µM
  relative viability: 0.747
NCI-H596; first compound 0.02 µM
  relative viability: 0.522
NCI-H596; first compound 0.2 µM
  relative viability: 0.49
NCI-H596; first compound 0.6325 µM
  relative viability: 0.471
NCI-H596; first compound 2 µM
  relative viability: 0.479
NCI-H650; first compound 0.02 µM
  relative viability: 0.962
NCI-H650; first compound 0.2 µM
  relative viability: 0.903
NCI-H650; first compound 0.6325 µM
  relative viability: 0.884
NCI-H650; first compound 2 µM
  relative viability: 0.874
PC-3 [JPC-3]; first compound 0.02 µM
  relative viability: 1.04
PC-3 [JPC-3]; first compound 0.2 µM
  relative viability: 0.709
PC-3 [JPC-3]; first compound 0.6325 µM
  relative viability: 0.656
PC-3 [JPC-3]; first compound 2 µM
  relative viability: 0.469
SK-LU-1; first compound 0.02 µM
  relative viability: 0.918
SK-LU-1; first compound 0.2 µM
  relative viability: 0.868
SK-LU-1; first compound 0.6325 µM
  relative viability: 0.654
SK-LU-1; first compound 2 µM
  relative viability: 0.557
